Measurements published in BindingDB's records for doi:10.1016/S0960-894X(00)80304-2 (1993).

Target: Leukotriene B4 receptor 1 (Cavia porcellus)
Assay: Binding affinity against LTB4 receptor in guinea pig membrane

| Structure (SMILES) | Ki [µM] |
| --- | --- |
| CCCc1c(OCCCOc2cc(O)c(C(C)=O)cc2CC)cccc1OC(C)C(=O)O (configuration not stated) [2-{3-[3-(4-Acetyl-2-ethyl-5-hydroxy-phenoxy)-propoxy]-2-propyl-phenoxy}-propionic acid] | 0.019 |
| CCCc1c(OCCCOc2cc(O)c(C(C)=O)cc2CC)cccc1OCC(=O)O [{3-[3-(4-Acetyl-2-ethyl-5-hydroxy-phenoxy)-propoxy]-2-propyl-phenoxy}-acetic acid] | 0.005 |
